Laboratory results published in patent publication US20240109903A1, “SUBSTITUTED HETEROCYCLES FOR TREATING CANCER” (Northwestern University, priority 2022, published 2024).

Assays:
SK-MEL-2 = assay: NCI 60 five-dose screen SK-MEL-2; assay type: cell-based; details: Homo sapiens
NCI-H460 = assay: NCI 60 five-dose screen NCI-H460; assay type: cell-based; details: Homo sapiens
MDA-MB-435 = assay: NCI 60 five-dose screen MDA-MB-435; assay type: cell-based; details: Homo sapiens
EKVX = assay: NCI 60 five-dose screen EKVX; assay type: cell-based; details: Homo sapiens
SW-620 = assay: NCI 60 five-dose screen SW-620; assay type: cell-based; details: Homo sapiens
A549/ATCC = assay: NCI 60 five-dose screen A549/ATCC; assay type: cell-based; details: Homo sapiens
BT-549 = assay: NCI 60 five-dose screen BT-549; assay type: cell-based; details: Homo sapiens
T-47D = assay: NCI 60 five-dose screen T-47D; assay type: cell-based; details: Homo sapiens, T47D
786-0 = assay: NCI 60 five-dose screen 786-0; assay type: cell-based; details: Homo sapiens
NCI-H522 = assay: NCI 60 five-dose screen NCI-H522; assay type: cell-based; details: Homo sapiens
COLO 205 = assay: NCI 60 five-dose screen COLO 205; assay type: cell-based; details: Homo sapiens
ACHN = assay: NCI 60 five-dose screen ACHN; assay type: cell-based; details: Homo sapiens
PC-3 = assay: NCI 60 five-dose screen PC-3; assay type: cell-based; details: Homo sapiens
full NCI 60 cell panel = assay: NCI 60 Cell One-dose screen; assay type: cell-based, human; details: single high dose 10^−5 M, NCI 60 panel
Procedure, shortened: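 Single dose of 10^−5 M across the full NCI-60 human tumour cell panel. Value is percent growth relative to no-drug control and to time-zero cell number: 0–100 means growth inhibition, 0 means no net growth, below 0 means lethality (−100 = all cells dead).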

HOP-92 = assay: NCI 60 five-dose screen HOP-92; assay type: cell-based; details: Homo sapiens
SN12C = assay: NCI 60 five-dose screen SN12C; assay type: cell-based; details: Homo sapiens
LOX IMVI = assay: NCI 60 five-dose screen LOX IMVI; assay type: cell-based; details: Homo sapiens
SF-295 = assay: NCI 60 five-dose screen SF-295; assay type: cell-based; details: Homo sapiens
CAKI-1 = assay: NCI 60 five-dose screen CAKI-1; assay type: cell-based; details: Homo sapiens
UO-31 = assay: NCI 60 five-dose screen UO-31; assay type: cell-based; details: Homo sapiens
MDA-MB-468 = assay: NCI 60 five-dose screen MDA-MB-468; assay type: cell-based; details: Homo sapiens
SNB-75 = assay: NCI 60 five-dose screen SNB-75; assay type: cell-based; details: Homo sapiens
NCI-H322M = assay: NCI 60 five-dose screen NCI-H322M; assay type: cell-based; details: Homo sapiens
NCI/ADR-RES = assay: NCI 60 five-dose screen NCI/ADR-RES; assay type: cell-based; details: Homo sapiens
[1] = read-out: LC50 (the source's name) (converted)

O=c1ccc(Cn2c(C(F)(F)F)cc3c(Cl)ncnc32)c[nH]1 [NUCC-0226698]
GI50 (SK-MEL-2): 17 µM
IC50 (SK-MEL-2): 33.1 µM
IC (TGI) (SK-MEL-2): 32.4 µM
CC50 (SK-MEL-2; [1]): 63.1 µM
GI50 (NCI-H460): 12 µM
IC50 (NCI-H460): 16.6 µM
IC (TGI) (NCI-H460): 36.3 µM
CC50 (NCI-H460; [1]): ≥ 100 µM
GI50 (MDA-MB-435): 4.68 µM
IC50 (MDA-MB-435): 7.24 µM
IC (TGI) (MDA-MB-435): 20.4 µM
CC50 (MDA-MB-435; [1]): 74.1 µM
GI50 (EKVX): 14.1 µM
IC50 (EKVX): 30.9 µM
IC (TGI) (EKVX): 36.3 µM
CC50 (EKVX; [1]): 91.2 µM
GI50 (SW-620): 5.5 µM
IC50 (SW-620): 7.08 µM
IC (TGI) (SW-620): 26.3 µM
CC50 (SW-620; [1]): ≥ 100 µM
GI50 (A549/ATCC): 64.6 µM
IC50 (A549/ATCC): 100 µM
IC (TGI) (A549/ATCC): 100 µM
CC50 (A549/ATCC; [1]): ≥ 100 µM
GI50 (BT-549): 14.1 µM
IC50 (BT-549): 29.5 µM
IC (TGI) (BT-549): 28.8 µM
CC50 (BT-549; [1]): 58.9 µM
GI50 (T-47D): 30.2 µM
IC50 (T-47D): 79.4 µM
IC (TGI) (T-47D): 100 µM
CC50 (T-47D; read-out: LC50 (the source's name)): ≥ 100 µM
GI50 (786-0): 43.7 µM
IC50 (786-0): 72.4 µM
IC (TGI) (786-0): 100 µM
CC50 (786-0; [1]): ≥ 100 µM
GI50 (NCI-H522): 2.04 µM
IC50 (NCI-H522): 3.98 µM
IC (TGI) (NCI-H522): 4.9 µM
CC50 (NCI-H522; [1]): ≥ 100 µM
GI50 (COLO 205): 87.1 µM
IC50 (COLO 205): 100 µM
IC (TGI) (COLO 205): 100 µM
CC50 (COLO 205; [1]): ≥ 100 µM
GI50 (ACHN): 22.4 µM
IC50 (ACHN): 33.9 µM
IC (TGI) (ACHN): 100 µM
CC50 (ACHN; [1]): ≥ 100 µM
GI50 (PC-3): 17 µM
IC50 (PC-3): 28.2 µM
IC (TGI) (PC-3): 56.2 µM
CC50 (PC-3; [1]): ≥ 100 µM
growth inhibition in the One-Dose Screen (full NCI 60 cell panel): significant growth inhibition
GI50 (HOP-92): 22.9 µM
IC50 (HOP-92): 100 µM
IC (TGI) (HOP-92): 100 µM
CC50 (HOP-92; [1]): ≥ 100 µM
GI50 (SN12C): 6.46 µM
IC50 (SN12C): 11.7 µM
IC (TGI) (SN12C): 23.4 µM
CC50 (SN12C; [1]): 69.2 µM
GI50 (LOX IMVI): 1.66 µM
IC50 (LOX IMVI): 2.88 µM
IC (TGI) (LOX IMVI): 3.09 µM
CC50 (LOX IMVI; [1]): 5.89 µM
GI50 (SF-295): 28.2 µM
IC50 (SF-295): 50.1 µM
IC (TGI) (SF-295): 100 µM
CC50 (SF-295; [1]): ≥ 100 µM
GI50 (CAKI-1): 23.4 µM
IC50 (CAKI-1): 42.7 µM
IC (TGI) (CAKI-1): 100 µM
CC50 (CAKI-1; [1]): ≥ 100 µM
GI50 (UO-31): 5.01 µM
IC50 (UO-31): 14.1 µM
IC (TGI) (UO-31): 19.1 µM
CC50 (UO-31; [1]): 47.9 µM
GI50 (MDA-MB-468): 2.09 µM
IC50 (MDA-MB-468): 8.13 µM
IC (TGI) (MDA-MB-468): 5.75 µM
CC50 (MDA-MB-468; [1]): 25.1 µM
GI50 (SNB-75): 10.7 µM
IC50 (SNB-75): 24 µM
IC (TGI) (SNB-75): 23.4 µM
CC50 (SNB-75; [1]): 50.1 µM
GI50 (NCI-H322M): 14.1 µM
IC50 (NCI-H322M): 32.4 µM
IC (TGI) (NCI-H322M): 39.8 µM
CC50 (NCI-H322M; [1]): ≥ 100 µM
GI50 (NCI/ADR-RES): 14.1 µM
IC50 (NCI/ADR-RES): 27.5 µM
IC (TGI) (NCI/ADR-RES): 39.8 µM
CC50 (NCI/ADR-RES; [1]): ≥ 100 µM
